Test results published in patent publication US9663516B2, “Bicyclic-pyrimidinedione compounds” (MyoKardia, Inc., priority 2014, dated 2017).

biological target: bovine cardiac myosin (Bos taurus, UniProt Q9BE39); assay: Myosin inhibition assay (PK/LDH-coupled ATPase, bovine cardiac myofibrils); assay type: biochemical; conditions: calcium concentration giving 50% activation, pH 6.8, read-out: bcMF pCa_6 IC50
Description: Small molecule agents were assessed for their ability to inhibit the enzymatic activity of bovine cardiac myosin using a biochemical assay that couples the release of ADP (adenosine diphosphate) from cardiac myosin to an enzymatic coupling system consisting of pyruvate kinase and lactate dehydrogenase (PK/LDH) and monitoring the absorbance decrease of NADH (at 340 nm) as a function of time. PK converts ADP to ATP (adenosine triphosphate) by converting PEP (phosphoenolpyruvate) to pyruvate. Pyruvate is then converted to lactate by LDH by converting NADH (nicotinamide adenine dinucleotide) to NAD (oxidized nicotinamide adenine dinucleotide). […] Prior to testing small molecule agents, the bovine myofibrils were assessed for their calcium responsiveness and the calcium concentration that achieves a 50% activation of the myofibril system was chosen as the final condition for assessing the inhibitory activity of the small molecule agents. All enzymatic activity was measured in a buffered solution containing 12 mM PIPES (piperazine-N,N′-bis(2-ethanesulfonic acid), 2 mM magnesium chloride at pH 6.8 (PM12 buffer). Final assay conditions were 1 mg/mL of bovine cardiac myofibrils, 0.4 mM PK/LDH, 50 uM ATP, 0.1 mg/mL BSA (bovine serum albumin), 10 ppm antifoam, 2 mM BME, 0.5 mM NADH, 1.5 mM PEP at the desired free calcium concentration required to achieve 50% activation of the myofibrils.
A dilution series of compound was created in DMSO such that the final desired concentration of compound would be achieved in a volume of 30 μL with a fixed DMSO concentration of 3.3% (v/v). Typically 1 μL of the dilution series were added to 384 well plate to achieve an 10 point dose response. Following the addition of 14 μL of a solution containing bovine cardiac myofibrils, PK/LDH and a solution of calcium (that achieved 50% activation), the enzymatic reaction was started with the addition of 15 μL of a solution containing ATP, PEP and NADH. The reaction progress was followed in a PerkinElmer Envision plate reader at ambient temperature using clear bottom plates. The plate reader was configured to read absorbance at 340 nm in kinetics mode for 15 minutes. Data were recorded as the slope of the absorbance response to time. The slopes of the absorbance response as a function of time were normalized to slopes on the plate containing DMSO. This normalized rate was then plotted as a function of small molecule concentration and the data was fitted to a four-parameter fit using EXCEL XLfit. The IC50 is the concentration at which fifty percent of the total response is inhibited.

Sequence of bovine cardiac myosin (Q9BE39 whole entry): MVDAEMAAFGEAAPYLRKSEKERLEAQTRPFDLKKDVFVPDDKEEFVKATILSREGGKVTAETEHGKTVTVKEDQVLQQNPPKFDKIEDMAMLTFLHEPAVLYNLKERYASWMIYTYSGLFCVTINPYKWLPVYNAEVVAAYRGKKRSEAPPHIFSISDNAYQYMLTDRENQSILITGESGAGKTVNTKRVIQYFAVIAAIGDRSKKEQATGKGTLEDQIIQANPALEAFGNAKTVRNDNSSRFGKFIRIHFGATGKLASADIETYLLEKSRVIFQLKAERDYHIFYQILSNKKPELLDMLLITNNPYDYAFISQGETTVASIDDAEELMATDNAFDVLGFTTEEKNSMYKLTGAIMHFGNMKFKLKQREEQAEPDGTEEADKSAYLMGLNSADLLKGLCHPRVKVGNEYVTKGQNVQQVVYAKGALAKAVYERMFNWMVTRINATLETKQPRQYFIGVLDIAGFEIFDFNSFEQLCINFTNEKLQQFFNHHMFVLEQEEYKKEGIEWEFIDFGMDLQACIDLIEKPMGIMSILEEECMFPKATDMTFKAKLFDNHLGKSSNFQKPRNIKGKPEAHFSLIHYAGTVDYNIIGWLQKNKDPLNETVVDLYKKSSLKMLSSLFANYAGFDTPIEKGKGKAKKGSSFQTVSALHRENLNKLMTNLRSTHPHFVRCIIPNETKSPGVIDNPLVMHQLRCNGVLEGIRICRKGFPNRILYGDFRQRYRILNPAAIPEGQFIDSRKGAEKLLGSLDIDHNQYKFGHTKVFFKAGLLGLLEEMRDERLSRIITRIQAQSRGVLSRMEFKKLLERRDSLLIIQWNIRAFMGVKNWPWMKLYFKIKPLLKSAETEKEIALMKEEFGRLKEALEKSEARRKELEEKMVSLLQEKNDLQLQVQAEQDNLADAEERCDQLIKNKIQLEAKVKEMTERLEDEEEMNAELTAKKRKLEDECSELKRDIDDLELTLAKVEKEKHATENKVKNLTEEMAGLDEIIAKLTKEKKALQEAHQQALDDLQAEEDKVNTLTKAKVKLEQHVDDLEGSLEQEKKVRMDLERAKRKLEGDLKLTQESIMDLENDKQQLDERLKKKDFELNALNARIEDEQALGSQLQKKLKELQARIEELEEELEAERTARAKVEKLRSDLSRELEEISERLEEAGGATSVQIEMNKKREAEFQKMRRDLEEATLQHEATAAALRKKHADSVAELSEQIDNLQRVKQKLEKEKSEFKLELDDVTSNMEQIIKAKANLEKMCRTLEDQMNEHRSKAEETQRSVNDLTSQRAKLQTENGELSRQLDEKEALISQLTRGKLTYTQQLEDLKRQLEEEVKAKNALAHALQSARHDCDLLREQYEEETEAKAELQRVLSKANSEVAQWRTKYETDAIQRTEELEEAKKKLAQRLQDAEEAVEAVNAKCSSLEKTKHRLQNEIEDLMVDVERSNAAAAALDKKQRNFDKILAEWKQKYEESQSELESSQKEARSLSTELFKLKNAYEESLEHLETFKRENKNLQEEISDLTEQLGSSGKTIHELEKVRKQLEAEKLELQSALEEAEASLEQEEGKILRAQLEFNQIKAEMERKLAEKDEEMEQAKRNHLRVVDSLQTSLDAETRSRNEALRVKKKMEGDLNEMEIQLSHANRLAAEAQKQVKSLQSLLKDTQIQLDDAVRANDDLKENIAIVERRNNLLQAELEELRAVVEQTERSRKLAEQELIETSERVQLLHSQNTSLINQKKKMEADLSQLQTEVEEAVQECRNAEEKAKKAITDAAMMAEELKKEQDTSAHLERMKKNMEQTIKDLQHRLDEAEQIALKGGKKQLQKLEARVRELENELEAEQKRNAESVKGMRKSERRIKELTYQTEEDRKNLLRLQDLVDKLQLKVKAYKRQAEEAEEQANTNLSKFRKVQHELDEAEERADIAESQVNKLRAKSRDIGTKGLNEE
Sequence of bovine cardiac myosin (P85100 whole entry partner): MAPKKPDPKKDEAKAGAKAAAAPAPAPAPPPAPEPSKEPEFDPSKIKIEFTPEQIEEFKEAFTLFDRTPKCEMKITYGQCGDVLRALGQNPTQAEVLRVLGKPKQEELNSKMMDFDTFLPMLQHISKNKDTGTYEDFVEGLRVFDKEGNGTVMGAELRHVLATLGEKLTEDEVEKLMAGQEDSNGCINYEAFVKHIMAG
Sequence of bovine cardiac myosin (Q3SZE5 whole entry partner): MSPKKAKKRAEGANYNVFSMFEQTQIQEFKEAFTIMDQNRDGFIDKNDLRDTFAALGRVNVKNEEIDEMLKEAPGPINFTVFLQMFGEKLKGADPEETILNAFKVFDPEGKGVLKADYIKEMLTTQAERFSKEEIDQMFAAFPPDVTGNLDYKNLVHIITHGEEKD

Compound	IC50 [µM]
O=c1[nH]c2c(c(=O)n1CC(F)(F)F)CC[C@@H](c1ccccc1)N2 [Compound 86]	> 15
CCn1c(=O)[nH]c2c(c1=O)CC[C@@H](c1ccc(F)c(F)c1)N2 [Compound 94]	1 to 15
O=c1[nH]c2c(c(=O)n1-c1ccccc1)C(O)C[C@H](c1ccc(F)cc1)N2 (stereo partly drawn) [Compound 95, (7R)-7-(4-Fluorophenyl)-5-hydroxy-3-phenyl-5,6,7,8-tetrahydropyrido[2,3-d]pyrimidine-2,4(1H,3H)-dione]	> 15
O=c1[nH]c2c(c(=O)n1C1CCC1)CC[C@H](c1ccc(F)c(F)c1)N2 [Compound 96]	1 to 15
CCCn1c(=O)[nH]c2c(c1=O)CC[C@H](c1ccc(F)c(F)c1)N2 [Compound 97]	1 to 15
CCn1c(=O)[nH]c2c(c1=O)CC[C@@H](c1ccc(F)c(F)c1)CN2 [Compound 98]	> 15
CCn1c(=O)[nH]c2c(c1=O)CCC[C@H](c1ccc(F)c(F)c1)N2 [Compound 99]	> 15
CCn1c(=O)[nH]c2c(c1=O)CCC[C@@H](c1ccc(F)c(F)c1)N2 [Compound 100]	> 15
COC(=O)N1CCC(n2c(=O)[nH]c3c(c2=O)CC[C@H](c2ccccc2)N3)CC1 [Compound 110]	1 to 15
CC(C)n1c(=O)[nH]c2c(c1=O)CC[C@](C)(c1ccc(F)c(F)c1)N2 [Compound 111]	< 1
Cn1c(=O)[nH]c2c(c1=O)CC[C@](C)(c1cc(F)ccc1F)N2 [Compound 118]	1 to 15
CCn1c(=O)[nH]c2c(c1=O)CC[C@](C)(c1cc(F)ccc1F)N2 [Compound 119]	1 to 15
CC1(n2c(=O)[nH]c3c(c2=O)CC[C@H](c2cc(F)ccc2F)N3)CC1 [Compound 120]	1 to 15
CC1(n2c(=O)[nH]c3c(c2=O)CC[C@H](c2cccc(F)c2)N3)CC1 [Compound 121]	1 to 15
CCn1c(=O)[nH]c2c(c1=O)CC[C@](CC)(c1ccccc1)N2 [Compound 123]	1 to 15
COC(=O)N1CCC(n2c(=O)[nH]c3c(c2=O)CC[C@](C)(c2ccc(F)c(F)c2)N3)CC1 [Compound 125]	1 to 15
Cn1c(=O)[nH]c2c(c1=O)CC[C@](C)(c1cccc(F)c1)N2 [Compound 126, (R)-7-(3-Fluorophenyl)-3,7-dimethyl-5,6,7,8-tetrahydropyrido[2,3-d]pyrimidine-2,4(1H,3H)-dione]	1 to 15

Compound	IC50 [µM]
C[C@]1(c2cccc(F)c2)CCc2c([nH]c(=O)n(-c3ccccc3)c2=O)N1 [Compound 127]	< 1
C[C@]1(c2cccc(F)c2)CCc2c([nH]c(=O)n(C3CCOCC3)c2=O)N1 [Compound 128]	< 1
CCn1c(=O)[nH]c2c(c1=O)CC[C@@](c1ccccc1)(C(C)C)N2 [Compound 131]	1 to 15
CCn1c(=O)[nH]c2c(c1=O)CC[C@@](c1ccccc1)(C(C)C)N2 [Compound 132]	> 15
CCC[C@]1(c2ccccc2)CCc2c([nH]c(=O)n(CC)c2=O)N1 [Compound 133]	1 to 15
C[C@]1(c2cc(F)ccc2F)CCc2c([nH]c(=O)n(C3CCC3)c2=O)N1 [Compound 134]	< 1
C[C@]1(c2cc(F)ccc2F)CCc2c([nH]c(=O)n(-c3cc(F)cc(F)c3)c2=O)N1 [Compound 135]	< 1
C[C@]1(c2cccc(F)c2)CCc2c([nH]c(=O)n(CC(F)F)c2=O)N1 [Compound 136]	< 1
C[C@]1(c2cccc(F)c2)CCc2c([nH]c(=O)n(CC(F)(F)F)c2=O)N1 [Compound 137]	< 1
C[C@]1(c2cc(F)ccc2F)CCc2c([nH]c(=O)n(C3CC3)c2=O)N1 [Compound 138]	< 1
C[C@]1(c2ccccc2)CCc2c([nH]c(=O)n(-c3ccccc3)c2=O)N1 [Compound 139]	< 1
COC(=O)N1CCC([C@H]2CCc3c([nH]c(=O)n(C(C)C)c3=O)N2)CC1 [Compound 141]	1 to 15
CCn1c(=O)[nH]c2c(c1=O)CC[C@@](c1ccccc1)(C1CCOCC1)N2 [Compound 142]	< 1
CCn1c(=O)[nH]c2c(c1=O)CC[C@](c1ccccc1)(C1CCOCC1)N2 [Compound 143]	1 to 15
CCn1c(=O)[nH]c2c(c1=O)C[C@](C)(c1ccccc1)N2 [Compound 144]	> 15
CCn1c(=O)[nH]c2c(c1=O)CC[C@@](c1ccccc1)(C1CCC1)N2 [Compound 145]	< 1
CCn1c(=O)[nH]c2c(c1=O)CC[C@](c1ccccc1)(C1CCC1)N2 [Compound 146]	> 15

Second part, the compound after the results:

IC50 [µM]	Compound
> 15	CC(C)n1c(=O)[nH]c2c(c1=O)C[C@H](Cc1ccccc1)N2 [Compound 87]
> 15	CC(C)n1c(=O)[nH]c2c(c1=O)C[C@@H](Cc1ccccc1)N2 [Compound 88]
1 to 15	CC(C)n1c(=O)[nH]c2c(c1=O)CCC(c1ccccc1)N2 (centres unmarked) [Compound 89]
1 to 15	O=c1[nH]c2c(c(=O)n1C1CC1)CC[C@H](c1ccccc1)N2 [Compound 90]
> 15	CC(C)n1c(=O)[nH]c2c(c1=O)C[C@@H](C)[C@H](c1ccccc1)N2 [Compound 91]
> 15	CC(C)n1c(=O)[nH]c2c(c1=O)C[C@H](C)[C@H](c1ccccc1)N2 [Compound 92]
> 15	COc1cccc([C@@H]2CCc3c([nH]c(=O)n(C(C)C)c3=O)N2)c1 [Compound 93]
1 to 15	[2H]C1([2H])C[C@H](c2ccc(F)c(F)c2)Nc2[nH]c(=O)n(C(C)C)c(=O)c21 [Compound 101, (7R)-7-(3,4-Difluorophenyl)-3-isopropyl-5,6,7,8-tetrahydropyrido[2,3-d]pyrimidine-2,4(1H,3H)-dione-5,5-d2]
< 1	Cc1cccc([C@H]2CCc3c([nH]c(=O)n(C(C)C)c3=O)N2)c1 [Compound 102]
> 15	Cc1cccc([C@@H]2CCc3c([nH]c(=O)n(C(C)C)c3=O)N2)c1 [Compound 103]
1 to 15	Cc1ccccc1[C@H]1CCc2c([nH]c(=O)n(C(C)C)c2=O)N1 [Compound 104]
> 15	Cc1ccccc1[C@@H]1CCc2c([nH]c(=O)n(C(C)C)c2=O)N1 [Compound 105]
> 15	CC(C)n1c(=O)[nH]c2c(c1=O)CC[C@@](C)(c1ccccc1)N2 [Compound 107]
1 to 15	O=c1[nH]c2c(c(=O)n1-c1ccccc1)CC[C@H](c1ccccc1F)N2 [Compound 108]
> 15	O=c1[nH]c2c(c(=O)n1-c1ccccc1)CC[C@@H](c1ccccc1F)N2 [Compound 109]
< 1	CC(C)n1c(=O)[nH]c2c(c1=O)CC[C@@](c1ccccc1)(C(F)F)N2 [Compound 112]
> 15	CC1(n2c(=O)[nH]c3c(c2=O)CC[C@@H](c2ccccc2F)N3)CC1 [Compound 113]
1 to 15	CC1(n2c(=O)[nH]c3c(c2=O)CC[C@H](c2ccccc2F)N3)CC1 [Compound 114]
< 1	CC(C)n1c(=O)[nH]c2c(c1=O)CC[C@](C)(c1cc(F)ccc1F)N2 [Compound 115]
> 15	CC(C)n1c(=O)[nH]c2c(c1=O)CC(F)(F)[C@@H](c1ccccc1)N2 [Compound 117, (R)-6,6-Difluoro-3-isopropyl-7-phenyl-5,6,7,8-tetrahydropyrido[2,3-d]pyrimidine-2,4(1H,3H)-dione]
1 to 15	Cc1ccccc1[C@H]1CCc2c([nH]c(=O)n(C3(C)CC3)c2=O)N1 [Compound 122]
1 to 15	Cc1cccc([C@H]2CCc3c([nH]c(=O)n(C4(C)CC4)c3=O)N2)c1 [Compound 124]
< 1	CC(C)n1c(=O)[nH]c2c(c1=O)CC(F)(F)[C@H](c1cccc(Cl)c1)N2 [Compound 129]
> 15	CC(C)n1c(=O)[nH]c2c(c1=O)CC(F)(F)[C@@H](c1cccc(Cl)c1)N2 [Compound 130]
1 to 15	CC(C)n1c(=O)[nH]c2c(c1=O)CC(F)(F)[C@](C)(c1ccccc1)N2 [Compound 140]
